Test results reported in patent US20160151403A1, “SMALL MOLECULE MODULATORS OF P53 FAMILY SIGNALING” (The Trustees of the University of Pennsylvania, priority 2006, published 2016).

System: p73 in HCT116/p53(−/−) cells
Assay: Western blot of p73 protein in HCT116/p53(-/-) cells
Format: cell-based, human
Details: FIG. 3F
Procedure: FIGS. 3A-3F show: Structures (A) of isolated compounds and summary of their effects on the p53 family and transcriptional targets (B). Cell cycle profiles of HCT/p53(+/+) and HCT/p53(−/−) in response to treatment by selected compounds (C-E). The dose of #17 was 200 μM and for #23 it was 10 μM. F, p73 protein levels were elevated in HCT116/p53(−/−) cells in response to treatment by selected compounds at various concentrations as indicated;
Cells were collected and protein concentration was quantified by the Bio-Rad protein assay prior to SDS-PAGE. Proteins were transferred to a PVDF membrane (Immobilon-P, Millipore Corporation, Bedford, Mass.) by a semi-dry transfer apparatus (Bio-Rad Laboratories, Hercules, Calif.). The membranes with transferred proteins were blotted with 10% W/V non-fat dry milk and then incubated with the primary antibody and subsequently secondary antibodies, which were labelled by horseradish peroxidase, or infrared dyes (IR). Signals were visualized by either ECL (Amersham Pharmacia Biotech, England, UK) and exposed to an X-ray film, or scanned by the Odyssey Infared Imaging System (LI-COR Biosciences, Lincoln, Nebr.). Anti-p53, DO-1, was from Santa Cruz biotechnology, Inc. (Santa Cruz, Calif.), anti-p73 (AB-1) and anti-p21 (AB-1) were obtained from Calbiochem (San Diego, Calif.). Anti-ser20 of p53 Cell were obtained from Signaling Technology (Danvers, Mass.) and anti-DR5 antibody was obtained from Cayman Chemical (Ann Arbor, Mich.).
The questioned whether the p53 family member p73 is involved in the p53-responsive transcriptional activity induced by the compounds identified was then tested. p63, the other p53 family member, was not tested, because the TA form of p63 is rarely expressed in malignant and normal tissues except for germ cells of the ovary and testis.

Row | SMILES | p73 protein expression
1 | COc1cccc2c1C(=O)c1c(O)c3c(c(O)c1C2=O)CC(O)(/C(C)=N/O)CC3OC1CC(N)C(O)C(C)O1 (centres unmarked) [#14] | strong inducers of p73
2 | COc1cccc2c1C(=N)c1c(O)c3c(c(O)c1C2=O)C[C@@](O)(C(C)=O)C[C@@H]3O[C@H]1C[C@H](N)[C@H](O)[C@H](C)O1 [#23] | strong inducers of p73
